Results taken from the supplement of paper PMC11061612.

Experiments:
Test in all cases: Bliss excess, mean over the matrix (fraction); higher = more synergy
[1] = test system: COLO-205 (Colorectal Carcinoma)
Procedure, shortened: (§1)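 After 24 hours at 37°C and 5% CO2 in 1536-well plates, cells in DMEM/F12 or RPMI plus 10% FBS received two-drug dose matrices for 72 hours. Viability came from CellTiter-Glo 2.0 luminescence and was scaled as inhibition, anchored at 0 by vehicle wells and at 1 by blank wells. Combination Emax is taken as the second-highest inhibition in the matrix, and Bliss excess as the observed combination effect less EA + EB − EA·EB, with EA and EB the single-agent effects.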

[2] = test system: KYSE-520 (Esophageal Squamous Cell Carcinoma)
Procedure, shortened: as §1

[3] = test system: KURAMOCHI (Ovarian Carcinoma)
Procedure, shortened: as §1

[4] = test system: Hs-578-T (Breast Carcinoma)
Procedure, shortened: as §1

[5] = test system: LNCaP-Clone-FGC (Prostate Carcinoma)
Procedure, shortened: as §1

[6] = test system: HO-1-N-1 (Oral Cavity Carcinoma)
Procedure, shortened: as §1

[7] = test system: HCC1806 (Breast Carcinoma)
Procedure, shortened: as §1

[8] = test system: RO82-W-1 (Thyroid Gland Carcinoma)
Procedure, shortened: as §1

[9] = test system: OVCA420 (Ovarian Carcinoma)
Procedure, shortened: as §1

[10] = test system: LS-180 (Colorectal Carcinoma)
Procedure, shortened: as §1

[11] = test system: NCI-H82 (Small Cell Lung Carcinoma)
Procedure, shortened: as §1

HOS (Osteosarcoma) = test system: HOS (Osteosarcoma)
Procedure, shortened: as §1

[12] = test system: TCCSUP (Bladder Carcinoma)
Procedure, shortened: as §1

NB10 (Neuroblastoma) = test system: NB10 (Neuroblastoma)
Procedure, shortened: as §1

[13] = test system: EC-GI-10 (Esophageal Squamous Cell Carcinoma)
Procedure, shortened: as §1

[14] = test system: CAL-148 (Breast Carcinoma)
Procedure, shortened: as §1

[15] = test system: KP-1N (Pancreatic Carcinoma)
Procedure, shortened: as §1

[16] = test system: HT-1376 (Bladder Carcinoma)
Procedure, shortened: as §1

[17] = test system: HCC-78 (Lung Adenocarcinoma)
Procedure, shortened: as §1

[18] = test system: DoTc2-4510 (Cervical Carcinoma)
Procedure, shortened: as §1

| Compound | Bliss excess [1] | Bliss excess [2] | Bliss excess [3] | Bliss excess [4] | Bliss excess [5] | Bliss excess [6] | Bliss excess [7] | Bliss excess [8] | Bliss excess [9] | Bliss excess [10] | Bliss excess [11] | Bliss excess (HOS (Osteosarcoma)) | Bliss excess [12] | Bliss excess (NB10 (Neuroblastoma)) | Bliss excess [13] | Bliss excess [14] | Bliss excess [15] | Bliss excess [16] | Bliss excess [17] | Bliss excess [18] |
| --- | --- | --- | --- | --- | --- | --- | --- | --- | --- | --- | --- | --- | --- | --- | --- | --- | --- | --- | --- | --- |
| COc1nnc2ccc(N3CCC(c4ccc(OCCN5CCN(C)C(=O)[C@H]5C)cc4)CC3)nn12 [AZD5153] + Cn1cnc2c(F)c(Nc3ccc(Br)cc3Cl)c(C(=O)NOCCO)cc21 [Selumetinib] (first compound max 1 µM, 7x7, partner max 10 µM) | 0.0422 | 0.0018 | -0.0242 | -0.0344 | -0.0583 | 0.0226 | -0.0233 | 0.038 | 0.0303 | -0.0284 | -0.0771 | 0.0429 | -0.0264 | -0.0687 | 0.0858 | 0.0129 | -0.0417 | 0.0081 | 0.0035 | -0.0002 |
| Cc1c2c(nn1C)CSCc1cc(n(C)n1)CSc1cc(c3ccccc3c1)OCCCc1c(C(=O)O)n(C)c3c-2c(Cl)ccc13 [AZD5991] + C1CN(CCC1(C(=O)N[C@@H](CCO)C2=CC=C(C=C2)Cl)N)C3=NC=NC4=C3C=CN4 [Capivasertib] (first compound max 1 µM, 7x7, partner max 3 µM) | -0.023 | -0.0068 | 0.0205 | -0.0866 | -0.043 | 0.0001 | 0.0085 | -0.016 | 0.0186 | 0.0195 | -0.008 | -0.0083 | 0.0229 | -0.0316 | 0.0589 | 0.0486 | 0.0154 | -0.01 | 0.0056 | 0.0544 |
| Cc1c2c(nn1C)CSCc1cc(n(C)n1)CSc1cc(c3ccccc3c1)OCCCc1c(C(=O)O)n(C)c3c-2c(Cl)ccc13 [AZD5991] + C=CCn1c(=O)c2cnc(Nc3ccc(N4CCN(C)CC4)cc3)nc2n1-c1cccc(C(C)(C)O)n1 [AZD1775] (first compound max 1 µM, partner max 1 µM) | -0.0959 | 0.0434 | -0.0346 | -0.0244 | 0.0118 | -0.0348 | 0.0493 | -0.0197 | -0.0002 | 0.0495 | -0.0532 | -0.0274 | -0.0021 | -0.0441 | 0.0389 | 0.0567 | -0.0696 | 0.0345 | -0.0329 | -0.0399 |
| Cc1c2c(nn1C)CSCc1cc(n(C)n1)CSc1cc(c3ccccc3c1)OCCCc1c(C(=O)O)n(C)c3c-2c(Cl)ccc13 [AZD5991] + CC1(C)CCC(CN2CCN(c3ccc(C(=O)NS(=O)(=O)c4ccc(NCC5CCOCC5)c([N+](=O)[O-])c4)c(Oc4cnc5[nH]ccc5c4)c3)CC2)=C(c2ccc(Cl)cc2)C1 [Venetoclax] (first compound max 1 µM, 7x7, partner max 1 µM) | -0.0335 | -0.0306 | 0.0511 | -0.0513 | -0.0476 | 0.0055 | -0.0299 | -0.0523 | -0.0045 | 0.0019 | -0.036 | 0.0413 | -0.0662 | 0.0065 | -0.0024 | -0.0177 | -0.0262 | -0.0465 | -0.0245 | 0.0024 |
| Cc1c2c(nn1C)CSCc1cc(n(C)n1)CSc1cc(c3ccccc3c1)OCCCc1c(C(=O)O)n(C)c3c-2c(Cl)ccc13 [AZD5991] + CCN(CCO)CCCOc1ccc2c(Nc3cc(CC(=O)Nc4cccc(F)c4)[nH]n3)ncnc2c1 [AZD2811] (first compound max 1 µM, 7x7, partner max 1 µM) | 0.0153 | -0.0272 | -0.0046 | 0.0487 | 0.0567 | 0.0237 | 0.0297 | -0.0642 | -0.0245 | 0.0652 | 0.103 | 0.007 | -0.0288 | 0.0335 | 0.156 | 0.0597 | -0.0662 | -0.0077 | 0.0209 | 0.0509 |
| Cc1c2c(nn1C)CSCc1cc(n(C)n1)CSc1cc(c3ccccc3c1)OCCCc1c(C(=O)O)n(C)c3c-2c(Cl)ccc13 [AZD5991] + CN(C)CCCOc1ccc(-c2ccc3ncc4c(c3c2)n(C2CCOCC2)c(=O)n4C)cn1 [AZD0156] (first compound max 1 µM, 7x7, partner max 1 µM) | 0.0261 | 0.0045 | -0.0666 | 0.0816 | -0.0275 | -0.0044 | 0.0346 | 0.0257 | -0.0333 | 0.0054 | -0.0207 | -0.0026 | -0.0332 | 0.0269 | 0.0487 | 0.0528 | -0.0132 | 0.0039 | -0.0059 | 0.0422 |
| Cc1c2c(nn1C)CSCc1cc(n(C)n1)CSc1cc(c3ccccc3c1)OCCCc1c(C(=O)O)n(C)c3c-2c(Cl)ccc13 [AZD5991] + C[C@@H]1COCCN1C2=NC(=NC(=C2)C3(CC3)[S@](=N)(=O)C)C4=C5C=CNC5=NC=C4 [AZD6738] (first compound max 1 µM, 7x7, partner max 10 µM) | 0.0116 | 0.0162 | 0.0587 | -0.0254 | 0.0123 | -0.0134 | 0.0218 | -0.0303 | 0.0076 | 0.0196 | -0.0218 | 0.0356 | 0.0241 | 0.0339 | 0.061 | 0.0584 | 0.0679 | 0.0144 | 0.0028 | -0.0327 |
| Cc1c2c(nn1C)CSCc1cc(n(C)n1)CSc1cc(c3ccccc3c1)OCCCc1c(C(=O)O)n(C)c3c-2c(Cl)ccc13 [AZD5991] + C[C@@H](Nc1cc(F)cc(F)c1)c1cc(C(=O)N(C)C)cc2c(=O)cc(N3CCOCC3)oc12 [AZD8186] (first compound max 1 µM, 7x7, partner max 3 µM) | -0.0444 | -0.0258 | 0.039 | -0.126 | -0.0234 | 0.0943 | 0.0026 | 0.0066 | -0.0274 | -0.0189 | -0.0121 | -0.0169 | 0.0237 | -0.0444 | 0.0109 | -0.0338 | -0.0533 | -0.0304 | -0.005 | 0.0486 |
| Cc1c2c(nn1C)CSCc1cc(n(C)n1)CSc1cc(c3ccccc3c1)OCCCc1c(C(=O)O)n(C)c3c-2c(Cl)ccc13 [AZD5991] + Cn1cnc2c(F)c(Nc3ccc(Br)cc3Cl)c(C(=O)NOCCO)cc21 [Selumetinib] (first compound max 1 µM, 7x7, partner max 3 µM) | 0.0145 | -0.0208 | 0.031 | -0.0568 | -0.0301 | 0.0303 | 0.0254 | -0.0528 | 0.0316 | 0.0454 | -0.0406 | -0.0261 | -0.0066 | 0.0122 | 0.051 | 0.0184 | -0.029 | 0.0144 | -0.0245 | 0.0343 |
| C[C@@H]1COCCN1c1cc(C2([S@](C)(=N)=O)CC2)nc(-c2ccnc3[nH]ccc23)n1 [AZD6738] + O=C(c1cc(Cc2n[nH]c(=O)c3ccccc23)ccc1F)N1CCN(C(=O)C2CC2)CC1 [Olaparib] (first compound max 10 µM, 7x7, partner max 10 µM) | 0.0205 | -0.0402 | -0.0208 | -0.0002 | -0.0297 | -0.0196 | 0.0103 | -0.098 | 0.0117 | 0.0208 | -0.0194 | 0.0132 | 0.067 | 0.0017 | -0.0147 | 0.0123 | 0.0379 | -0.0687 | 0.0171 | 0.0652 |
| Cc1cc2ncnn2cc1Nc1ncc2c(n1)n(C1CCOCC1)c(=O)n2C [AZD7648] + C=CCn1c(=O)c2cnc(Nc3ccc(N4CCN(C)CC4)cc3)nc2n1-c1cccc(C(C)(C)O)n1 [AZD1775] (first compound max 10 µM, partner max 1 µM) | -0.026 | 0.0058 | -0.0501 | -0.121 | -0.0273 | 0.0444 | 0.0373 | 0.131 | -0.0186 | -0.0272 | -0.0429 | -0.0109 | -0.0109 | -0.0812 | -0.0049 | 0.0051 | -0.0681 | 0.0121 | -0.0417 | -0.0004 |
| Cc1cc2ncnn2cc1Nc1ncc2c(n1)n(C1CCOCC1)c(=O)n2C [AZD7648] + CCN(CCO)CCCOc1ccc2c(Nc3cc(CC(=O)Nc4cccc(F)c4)[nH]n3)ncnc2c1 [AZD2811] (first compound max 10 µM, 7x7, partner max 1 µM) | -0.0303 | 0.0138 | 0.0084 | -0.0561 | -0.003 | 0.0478 | 0.071 | -0.115 | -0.0057 | 0.0165 | 0.0981 | 0.0182 | 0.0258 | 0.0524 | 0.0846 | -0.0213 | -0.02 | -0.0382 | -0.014 | -0.0115 |
| Cc1cc2ncnn2cc1Nc1ncc2c(n1)n(C1CCOCC1)c(=O)n2C [AZD7648] + CN(C)CCCOc1ccc(-c2ccc3ncc4c(c3c2)n(C2CCOCC2)c(=O)n4C)cn1 [AZD0156] (first compound max 10 µM, 7x7, partner max 1 µM) | 0.0271 | -0.0068 | -0.064 | -0.088 | 0.0016 | 0.0046 | 0.0654 | -0.129 | 0.019 | -0.0443 | 0.0094 | -0.0172 | -0.011 | -0.0024 | 0.0001 | 0.0102 | -0.0058 | 0.0037 | 0.0106 | 0.0054 |
| Cc1cc2ncnn2cc1Nc1ncc2c(n1)n(C1CCOCC1)c(=O)n2C [AZD7648] + C[C@@H]1COCCN1C2=NC(=NC(=C2)C3(CC3)[S@](=N)(=O)C)C4=C5C=CNC5=NC=C4 [AZD6738] (first compound max 10 µM, 7x7, partner max 10 µM) | 0.0195 | 0.0356 | -0.0229 | -0.0744 | -0.0069 | 0.0001 | 0.014 | 0.0654 | 0.0074 | 0.0003 | -0.0596 | 0.0345 | 0.0311 | -0.0306 | -0.0064 | 0.0532 | -0.0035 | 0.0176 | -0.0011 | 0.0178 |
| Cc1cc2ncnn2cc1Nc1ncc2c(n1)n(C1CCOCC1)c(=O)n2C [AZD7648] + O=C(c1cc(Cc2n[nH]c(=O)c3ccccc23)ccc1F)N1CCN(C(=O)C2CC2)CC1 [Olaparib] (first compound max 10 µM, 7x7, partner max 10 µM) | -0.0345 | -0.0138 | -0.0418 | -0.0325 | -0.0049 | 0.0099 | -0.0343 | -0.0639 | -0.035 | -0.0896 | -0.0382 | 0.0023 | -0.0465 | -0.0102 | -0.0478 | -0.0545 | 0.0211 | -0.0549 | -0.0133 | -0.0428 |
